Reference: patent publication US10034861B2 (priority 2016, dated 2018)
Read-outs that look alike come from different tables or passages of the source.

Key:
Type in all cases: biochemical
Details in all cases: 15 nM tritium labelled cAMP, 1 hr at room temperature, SPA beads
[1] = target: PDE1A (Homo sapiens (Human), UniProt P54750); experiment: biochemical
Source text: (§1) Table 1 lists the IC50 value for inhibition of PDE1 by the compounds of the invention. […] PDE1 assays are described in the Experimental Section.

[2] = target: PDE1C (Homo sapiens (Human), UniProt Q14123); experiment: biochemical
Source text: as §1

[3] = target: PDE1B (Homo sapiens (Human), UniProt Q01064); experiment: PDE1 inhibition assay (PDE1B)
Source text: as §1

PDE1B, sequence (Q01064 whole entry): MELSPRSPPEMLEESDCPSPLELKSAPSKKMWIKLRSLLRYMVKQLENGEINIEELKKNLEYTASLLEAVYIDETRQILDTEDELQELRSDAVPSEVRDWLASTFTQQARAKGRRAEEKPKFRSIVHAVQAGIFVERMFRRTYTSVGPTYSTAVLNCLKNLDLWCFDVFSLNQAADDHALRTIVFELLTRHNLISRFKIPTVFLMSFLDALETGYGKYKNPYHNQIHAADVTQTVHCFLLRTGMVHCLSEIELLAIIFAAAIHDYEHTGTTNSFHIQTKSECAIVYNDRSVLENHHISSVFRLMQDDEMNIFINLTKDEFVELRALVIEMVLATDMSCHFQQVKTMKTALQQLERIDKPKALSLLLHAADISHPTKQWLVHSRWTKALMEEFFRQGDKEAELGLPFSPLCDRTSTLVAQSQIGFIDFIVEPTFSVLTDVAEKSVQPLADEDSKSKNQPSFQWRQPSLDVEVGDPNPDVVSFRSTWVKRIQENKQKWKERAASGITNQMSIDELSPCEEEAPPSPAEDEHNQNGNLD
PDE1A, sequence (P54750 whole entry): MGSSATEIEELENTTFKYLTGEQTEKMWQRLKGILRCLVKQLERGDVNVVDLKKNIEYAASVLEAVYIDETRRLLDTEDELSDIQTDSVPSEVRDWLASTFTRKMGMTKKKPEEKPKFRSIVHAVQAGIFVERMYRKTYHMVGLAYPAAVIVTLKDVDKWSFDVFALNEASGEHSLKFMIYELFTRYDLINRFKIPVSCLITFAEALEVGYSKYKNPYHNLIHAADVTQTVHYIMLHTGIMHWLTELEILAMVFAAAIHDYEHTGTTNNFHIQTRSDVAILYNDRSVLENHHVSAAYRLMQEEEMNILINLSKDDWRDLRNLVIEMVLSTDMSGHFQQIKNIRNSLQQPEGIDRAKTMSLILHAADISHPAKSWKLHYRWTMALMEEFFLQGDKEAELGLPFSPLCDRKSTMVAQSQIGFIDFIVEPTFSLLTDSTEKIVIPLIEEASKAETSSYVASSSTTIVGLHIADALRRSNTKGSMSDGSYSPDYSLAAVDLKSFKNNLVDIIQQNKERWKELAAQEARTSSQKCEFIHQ
PDE1C, sequence (Q14123 whole entry): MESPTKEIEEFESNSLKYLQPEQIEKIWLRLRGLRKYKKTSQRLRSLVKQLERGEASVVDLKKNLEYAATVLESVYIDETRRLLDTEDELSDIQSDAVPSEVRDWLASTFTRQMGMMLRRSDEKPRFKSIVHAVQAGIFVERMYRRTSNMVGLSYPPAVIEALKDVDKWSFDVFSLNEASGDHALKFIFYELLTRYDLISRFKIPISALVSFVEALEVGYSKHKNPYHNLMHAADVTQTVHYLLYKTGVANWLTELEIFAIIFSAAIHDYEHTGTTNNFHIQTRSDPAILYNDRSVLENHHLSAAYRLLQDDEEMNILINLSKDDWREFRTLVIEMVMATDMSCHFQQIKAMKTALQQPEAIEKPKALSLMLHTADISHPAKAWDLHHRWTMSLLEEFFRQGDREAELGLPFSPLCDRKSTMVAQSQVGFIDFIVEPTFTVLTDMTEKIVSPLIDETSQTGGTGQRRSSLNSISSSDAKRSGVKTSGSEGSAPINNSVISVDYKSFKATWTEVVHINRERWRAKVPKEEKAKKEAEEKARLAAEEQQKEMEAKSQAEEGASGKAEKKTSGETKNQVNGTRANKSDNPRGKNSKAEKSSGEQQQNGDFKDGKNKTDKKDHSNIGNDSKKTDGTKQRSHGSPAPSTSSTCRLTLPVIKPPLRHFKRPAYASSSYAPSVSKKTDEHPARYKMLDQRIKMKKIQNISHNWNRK

CCOc1ncccc1-c1cc(NCc2cn(C)cn2)c2c(cnn2C(C)C)n1 [Example 21, 5-(2-ethoxy-3-pyridyl)-1-isopropyl-N-[(1-methylimidazol-4-yl)methyl]pyrazolo[4,3-b]pyridin-7-amine]
IC50 [1]: 8.9 nM
IC50 [2]: 29 nM
IC50 ([3]; read-out: PDE1B, IC50): 0.44 nM

CCOc1ncccc1-c1cc(NCc2ncon2)c2c(n1)c(C)nn2C(C)C [Example 53, 5-(2-ethoxy-3-pyridyl)-1-isopropyl-3-methyl-N-(1,2,4-oxadiazol-3-ylmethyl)pyrazolo[4,3-b]pyridin-7-amine]
IC50 [1]: 9.3 nM
IC50 [2]: 17 nM
IC50 ([3]; read-out: PDE1B, IC50): 0.89 nM

CCOc1ncccc1-c1cc(NCc2cnn(C)c2)c2c(n1)c(C)nn2CC [Example 48, 5-(2-ethoxypyridin-3-yl)-1-ethyl-3-methyl-N-((1-methyl-1H-pyrazol-4-yl)methyl)-1H-pyrazolo[4,3-b]pyridin-7-amine]
IC50 [1]: 38 nM
IC50 [2]: 170 nM
IC50 ([3]; read-out: PDE1B, IC50): 6.3 nM

CCOc1ncccc1-c1cc(NCc2csc(C)c2)c2c(n1)c(C)nn2C(C)C [Example 34, 5-(2-ethoxy-3-pyridyl)-1-isopropyl-3-methyl-N-[(5-methyl-3-thienyl)methyl]pyrazolo[4,3-b]pyridin-7-amine]
IC50 [1]: 8.1 nM
IC50 [2]: 21 nM
IC50 ([3]; read-out: PDE1B, IC50): 1.8 nM

CCOc1ncccc1-c1cc(NCc2ccc(F)nc2)c2c(n1)c(C)nn2C(C)C [Example 116, 5-(2-ethoxy-3-pyridyl)-N-[(6-fluoro-3-pyridyl)methyl]-1-isopropyl-3-methyl-pyrazolo[4,3-b]pyridin-7-amine]
IC50 [1]: 21 nM
IC50 [2]: 46 nM
IC50 ([3]; read-out: PDE1B, IC50): 2.4 nM

CCOc1ncccc1-c1cc(NCc2ncc(C)o2)c2c(n1)c(C)nn2C(C)C [Example 38, 5-(2-ethoxy-3-pyridyl)-1-isopropyl-3-methyl-N-[(5-methyloxazol-2-yl)methyl]pyrazolo[4,3-b]pyridin-7-amine]
IC50 [1]: 1.1 nM
IC50 [2]: 13 nM
IC50 ([3]; read-out: PDE1B, IC50): 0.24 nM

Cc1nn(C(C)C)c2c(NCc3cnn(C)c3)cc(-c3nncn3C)nc12 [Example 203, 1-isopropyl-3-methyl-N-[(1-methylpyrazol-4-yl)methyl]-5-(4-methyl-1,2,4-triazol-3-yl)pyrazolo[4,3-b]pyridin-7-amine]
IC50 [1]: 410 nM
IC50 [2]: 420 nM
IC50 ([3]; read-out: PDE1B, IC50): 180 nM

CCOc1ncccc1-c1cc(NCc2ncc(F)cn2)c2c(n1)c(C)nn2C(C)C [Example 83, 5-(2-ethoxy-3-pyridyl)-N-[(5-fluoropyrimidin-2-yl)methyl]-1-isopropyl-3-methyl-pyrazolo[4,3-b]pyridin-7-amine]
IC50 [1]: 17 nM
IC50 [2]: 38 nM
IC50 ([3]; read-out: PDE1B, IC50): 1.2 nM

CCOc1ncccc1-c1cc(NCc2cnn(C)c2)c2c(cnn2C(C)C)n1 [Example 25, 5-(2-ethoxy-3-pyridyl)-1-isopropyl-N-[(1-methylpyrazol-4-yl)methyl]pyrazolo[4,3-b]pyridin-7-amine]
IC50 [1]: 56 nM
IC50 [2]: 150 nM
IC50 ([3]; read-out: PDE1B, IC50): 4.6 nM

CCCOc1ncccc1-c1cc(NCc2ncn(C)n2)c2c(n1)c(C)nn2C(C)CC (single isomer, unassigned) [Example 134, 3-methyl-1-[1-methylpropyl]-N-[(1-methyl-1,2,4-triazol-3-yl)methyl]-5-(2-propoxy-3-pyridyl)pyrazolo[4,3-b]pyridin-7-amine]
IC50 [1]: 0.96 nM
IC50 [2]: 1.5 nM
IC50 ([3]; PDE1B, IC50 (nM)): 0.12 nM

CCOc1ncccc1-c1cc(NCc2nnc(C)o2)c2c(n1)c(C)nn2C(C)C [Example 1, 5-(2-ethoxypyridin-3-yl)-1-isopropyl-3-methyl-N-((5-methyl-1,3,4-oxadiazol-2-yl)methyl)-1H-pyrazolo[4,3-b]pyridin-7-amine]
IC50 [1]: 18 nM
IC50 [2]: 40 nM
IC50 ([3]; read-out: PDE1B, IC50): 1.6 nM

CCOc1ncccc1-c1cc(NCc2c[nH]cn2)c2c(n1)c(C)nn2C(C)CC (single isomer, unassigned) [Example 130, 5-(2-ethoxy-3-pyridyl)-N-(1H-imidazol-4-ylmethyl)-3-methyl-1-[1-methylpropyl]pyrazolo[4,3-b]pyridin-7-amine]
IC50 [1]: 11 nM
IC50 [2]: 25 nM
IC50 ([3]; PDE1B, IC50 (nM)): 0.86 nM
